Data from publication PMC9374744, “Structural basis for receptor selectivity and inverse agonism in S1P5 receptors” (Nature Communications, 2022).
Where “and” joins values, the source holds several entries; their conditions need not be identical. Identical values can stand only once.

Columns and labels:
human S1P5 Y89W mutant = human S1P5 Y89W mutant (Homo sapiens, UniProt Q9H228, Y89W); assay: BRET-based cAMP Gi signaling assay, S1P5 Y89W; settings: ONO-5430608 pEC50, single experiments #1-#3, Y89W; inverse agonism; Figure 2c source data
Sequence of human S1P5 Y89W mutant (Q9H228 whole entry Y89W): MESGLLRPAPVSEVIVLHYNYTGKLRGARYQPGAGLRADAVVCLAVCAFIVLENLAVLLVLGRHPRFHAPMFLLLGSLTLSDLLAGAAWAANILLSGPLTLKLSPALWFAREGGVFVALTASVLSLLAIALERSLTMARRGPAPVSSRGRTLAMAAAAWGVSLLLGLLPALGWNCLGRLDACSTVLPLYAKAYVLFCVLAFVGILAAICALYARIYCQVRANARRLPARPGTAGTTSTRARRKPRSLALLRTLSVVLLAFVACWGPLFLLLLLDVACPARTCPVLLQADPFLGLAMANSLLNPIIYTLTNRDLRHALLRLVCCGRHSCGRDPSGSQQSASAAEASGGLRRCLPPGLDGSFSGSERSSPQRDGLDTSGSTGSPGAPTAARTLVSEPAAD

human S1P5 N92A mutant = human S1P5 N92A mutant (Homo sapiens, UniProt Q9H228, N92A); assay: BRET-based cAMP Gi signaling assay, S1P5 N92A; settings: inverse agonism
Sequence of human S1P5 N92A mutant (Q9H228 whole entry N92A): as the sequence (Q9H228 whole entry Y89W) above, with W89Y, N92A counted along it

human S1P5 N92C mutant = human S1P5 N92C mutant (Homo sapiens, UniProt Q9H228, N92C); assay: BRET-based cAMP Gi signaling assay, S1P5 N92C; settings: inverse agonism
Sequence of human S1P5 N92C mutant (Q9H228 whole entry N92C): as the sequence (Q9H228 whole entry Y89W) above, with W89Y, N92C counted along it

human S1P5 R111A mutant = human S1P5 R111A mutant (Homo sapiens, UniProt Q9H228, R111A); assay: BRET-based cAMP Gi signaling assay, S1P5 R111A; settings: inverse agonism
Sequence of human S1P5 R111A mutant (Q9H228 whole entry R111A): as the sequence (Q9H228 whole entry Y89W) above, with W89Y, R111A counted along it

human S1P5 R111Q mutant = human S1P5 R111Q mutant (Homo sapiens, UniProt Q9H228, R111Q); assay: BRET-based cAMP Gi signaling assay, S1P5 R111Q; settings: inverse agonism
Sequence of human S1P5 R111Q mutant (Q9H228 whole entry R111Q): as the sequence (Q9H228 whole entry Y89W) above, with W89Y, R111Q counted along it

human S1P5 E112A mutant = human S1P5 E112A mutant (Homo sapiens, UniProt Q9H228, E112A); assay: BRET-based cAMP Gi signaling assay, S1P5 E112A; settings: inverse agonism
Sequence of human S1P5 E112A mutant (Q9H228 whole entry E112A): as the sequence (Q9H228 whole entry Y89W) above, with W89Y, E112A counted along it

human S1P5 E112Q mutant = human S1P5 E112Q mutant (Homo sapiens, UniProt Q9H228, E112Q); assay: BRET-based cAMP Gi signaling assay, S1P5 E112Q; settings: inverse agonism
Sequence of human S1P5 E112Q mutant (Q9H228 whole entry E112Q): as the sequence (Q9H228 whole entry Y89W) above, with W89Y, E112Q counted along it

human S1P5 V115A mutant = human S1P5 V115A mutant (Homo sapiens, UniProt Q9H228, V115A); assay: BRET-based cAMP Gi signaling assay, S1P5 V115A; settings: inverse agonism
Sequence of human S1P5 V115A mutant (Q9H228 whole entry V115A): as the sequence (Q9H228 whole entry Y89W) above, with W89Y, V115A counted along it

human S1P5 L292V mutant = human S1P5 L292V mutant (Homo sapiens, UniProt Q9H228, L292V); assay: BRET-based cAMP Gi signaling assay, S1P5 L292V; settings: inverse agonism
Sequence of human S1P5 L292V mutant (Q9H228 whole entry L292V): as the sequence (Q9H228 whole entry Y89W) above, with W89Y, L292V counted along it

human S1P5 G293A mutant = human S1P5 G293A mutant (Homo sapiens, UniProt Q9H228, G293A); assay: BRET-based cAMP Gi signaling assay, S1P5 G293A; settings: inverse agonism
Sequence of human S1P5 G293A mutant (Q9H228 whole entry G293A): as the sequence (Q9H228 whole entry Y89W) above, with W89Y, G293A counted along it

human S1P5 M296W mutant = human S1P5 M296W mutant (Homo sapiens, UniProt Q9H228, M296W); assay: BRET-based cAMP Gi signaling assay, S1P5 M296W; settings: for BRET ratio, single replicate readings (Supplementary Figure 6h): listed as ONO
Sequence of human S1P5 M296W mutant (Q9H228 whole entry M296W): as the sequence (Q9H228 whole entry Y89W) above, with W89Y, M296W counted along it

human S1P5 L318Q mutant = human S1P5 L318Q mutant (Homo sapiens, UniProt Q9H228, L318Q); assay: BRET-based cAMP Gi signaling assay, S1P5 L318Q; settings: inverse agonism
Sequence of human S1P5 L318Q mutant (Q9H228 whole entry L318Q): as the sequence (Q9H228 whole entry Y89W) above, with W89Y, L318Q counted along it

[1] = Figure 2c source data, N/R = no response

SMILES: O=C(O)CCCN1CCc2cccc(OCCc3cccc4ccccc34)c2CC1 [ONO-5430608, 4-{6-[2-(1-naphthyl)ethoxy]-1,2,4,5-tetrahydro-3H-3-benzazepin-3-yl} butanoic acid]
- EC50 (human S1P5 Y89W mutant): 3.01 nM and 1.99 nM and 4.31 nM
- ONO-5430608 pEC50, single experiments #1-#3 (human S1P5 N92A mutant; [1]): N/R
- ONO, pEC50, M (human S1P5 N92A mutant; n=3, N/R = no response): N/R
- ONO-5430608 pEC50, single experiments #1-#3 (human S1P5 N92C mutant; [1]): N/R
- ONO, pEC50, M (human S1P5 N92C mutant; n=3, N/R = no response): N/R
- ONO-5430608 pEC50, single experiments #1-#3 (human S1P5 R111A mutant; [1]): N/R
- ONO, pEC50, M (human S1P5 R111A mutant; n=3, N/R = no response): N/R
- ONO-5430608 pEC50, single experiments #1-#3 (human S1P5 R111Q mutant; [1]): N/R
- ONO, pEC50, M (human S1P5 R111Q mutant; n=3, N/R = no response): N/R
- ONO-5430608 pEC50, single experiments #1-#3 (human S1P5 E112A mutant; [1]): N/R
- ONO, pEC50, M (human S1P5 E112A mutant; n=3, N/R = no response): N/R
- ONO-5430608 pEC50, single experiments #1-#3 (human S1P5 E112Q mutant; [1]): N/R
- ONO, pEC50, M (human S1P5 E112Q mutant; n=3, N/R = no response): N/R
- EC50 (human S1P5 V115A mutant; ONO, pEC50, M, V115A, mean ± SD, n=3): 29.5 nM
- EC50 (human S1P5 V115A mutant; ONO-5430608 pEC50, single experiments #1-#3, V115A, Figure 2c source data): 30.6 nM and 24.8 nM and 34.5 nM
- EC50 (human S1P5 L292V mutant; ONO, pEC50, M, L292V, mean ± SD, n=3): 23.4 nM
- EC50 (human S1P5 L292V mutant; ONO-5430608 pEC50, single experiments #1-#3, L292V, Figure 2c source data): 23 nM and 25.6 nM and 22.5 nM
- EC50 (human S1P5 G293A mutant; ONO, pEC50, M, G293A, mean ± SD, n=3): 4.57 nM
- EC50 (human S1P5 G293A mutant; ONO-5430608 pEC50, single experiments #1-#3, G293A, Figure 2c source data): 5.11 nM and 4.57 nM and 4.12 nM
- BRET ratio, single replicate readings (Supplementary Figure 6h) (human S1P5 M296W mutant; [ONO] 0.169351 nM): 0.7521 and 0.7659 and 0.7554 and 0.7607 and 0.7663 and 0.7553 and 0.7695 and 0.7638 and 0.7661
- BRET ratio, single replicate readings (Supplementary Figure 6h) (human S1P5 M296W mutant; [ONO] 0.508053 nM): 0.7597 and 0.7659 and 0.7636 and 0.7627 and 0.756 and 0.7622 and 0.7625 and 0.7687 and 0.7621
- BRET ratio, single replicate readings (Supplementary Figure 6h) (human S1P5 M296W mutant; [ONO] 1.52416 nM): 0.7595 and 0.7589 (2×) and 0.7566 and 0.7528 and 0.7609 and 0.7625 and 0.7671 and 0.7682
- BRET ratio, single replicate readings (Supplementary Figure 6h) (human S1P5 M296W mutant; [ONO] 4.57247 nM): 0.7595 and 0.7699 and 0.7641 and 0.7574 and 0.7643 and 0.7563 and 0.7684 and 0.7632 and 0.7578
- BRET ratio, single replicate readings (Supplementary Figure 6h) (human S1P5 M296W mutant; [ONO] 13.7174 nM): 0.7542 and 0.7653 and 0.7527 and 0.7649 and 0.7654 and 0.7644 and 0.7698 and 0.7669 and 0.7638
- BRET ratio, single replicate readings (Supplementary Figure 6h) (human S1P5 M296W mutant; [ONO] 41.1523 nM): 0.7431 and 0.7677 and 0.7621 and 0.752 and 0.762 and 0.7675 and 0.761 and 0.7565 and 0.7598
- BRET ratio, single replicate readings (Supplementary Figure 6h) (human S1P5 M296W mutant; [ONO] 123.457 nM): 0.7416 and 0.7628 and 0.7677 and 0.7662 and 0.759 and 0.753 and 0.7663 and 0.7668 and 0.7626
- BRET ratio, single replicate readings (Supplementary Figure 6h) (human S1P5 M296W mutant; [ONO] 370.37 nM): 0.7572 and 0.757 and 0.7547 and 0.7694 and 0.7517 and 0.7654 and 0.7672 and 0.761 and 0.7564
- BRET ratio, single replicate readings (Supplementary Figure 6h) (human S1P5 M296W mutant; [ONO] 1111.11 nM): 0.7578 and 0.7573 and 0.7667 and 0.7569 and 0.7627 and 0.7676 and 0.756 and 0.7697 and 0.7628
- BRET ratio, single replicate readings (Supplementary Figure 6h) (human S1P5 M296W mutant; [ONO] 3333.33 nM): 0.7629 and 0.7592 and 0.7535 and 0.7543 and 0.758 and 0.7671 and 0.744 and 0.7683 and 0.7586
- ONO-5430608 pEC50, single experiments #1-#3 (human S1P5 M296W mutant; inverse agonism, Figure 2c source data, N/R = no response): N/R
- ONO, pEC50, M (human S1P5 M296W mutant; inverse agonism, n=3, N/R = no response): N/R
- EC50 (human S1P5 L318Q mutant; ONO, pEC50, M, L318Q, mean ± SD, n=3): 22.4 nM
- EC50 (human S1P5 L318Q mutant; ONO-5430608 pEC50, single experiments #1-#3, L318Q, Figure 2c source data): 23 nM and 24.6 nM and 20.4 nM
